In patent publication US10258697B2, “Efficient delivery of therapeutic molecules in vitro and in vivo” (Massachusetts Eye and Ear Infirmary, priority 2014, dated 2019):
No end group written: not given here.

Assays:
BSR.LNL.tdTomato cells [1] = assay: Primary screen for cytosolic delivery of Cre recombinase (fluorescence image analysis); type: cell-based, hamster; conditions: for level of recombination of sortase-conjugated peptide-(+36 GFP)-Cre: 250 nM, primary screen
Method: Initial screen of 20 peptide-(+36 GFP)-Cre conjugated proteins. Cytosolic Cre delivery results in recombination and tdTomato expression. The percentage of tdTomato positive cells was determined by fluorescence image analysis. […] Cells were washed and supplanted with full DMEM and incubated for 48 h. Error bars represent the standard deviation of three independent biological replicates.
BSR.LNL.tdTomato cells were plated at 10,000 cells per well in black 384-well plates (Aurora Biotechnologies). […] Following incubation, the cells were washed three times with PBS+20 U/mL heparin. The cells were incubated a further 48 h in serum-containing media. Cells were fixed in 3% paraformaldehyde and stained with Hoescht 33342 nuclear dye. […] Images were exposed for 10 ms in the DAPI channel (Hoechst) and 500 ms in the dsRed channel (tdTomato). Image analysis was performed using the cell-scoring module of MetaXpress software (Molecular Devices). All nuclei were detected with a minimum width of 1 pixel, maximum width of 3 pixels, and an intensity of 200 gray levels above background. Positive cells were evaluated for uniform signal in the dsRed channel (minimum width of 5 pixels, maximum width of 30 pixels, intensity >200 gray levels above background, 10 μm minimum stained area). In total, nine images were captured and analyzed per well, and 16 wells were treated with the same fusion protein. The primary screen was completed in biological triplicate.
Because Cre recombinase must enter the cell, escape endosomes, enter the nucleus, and catalyze recombination to generate tdTomato fluorescence, this assay reflects the availability of active, non-endosomal recombinase enzyme that reaches the nucleus.
The reporter BSR.LNL.tdTomato cells were incubated with 250 nM of each peptide-(+36 GFP)-Cre protein in serum-free media.

[2] = tested on: glucocorticoid receptor (GR-mCherry) in HeLa cells; assay: GR-mCherry translocation assay; type: cell-based; conditions: 1 μM for 30 min, HeLa cells expressing GR-mCherry
Method: One day prior to transfection 10,000 HeLa cells in 200 μL of DMEM (10% FBS, 1× Pen-Strep) were plated into single wells of a 96-well MATRICAL glass bottom microplate (MGB096-1-2-LG-L) and allowed to adhere overnight. The following day, cells were transfected with GRmCherry using LIPOFECTAMINE® 2000 technologies. Following transfection, cells were allowed to recover overnight in DMEM (+10% FBS). The following day, cells were treated with dexamethasone (Dex) or 1 μM Dex-protein conjugate in the presence or absence of inhibitor diluted into DMEM (without phenol red, +300 nM Hoescht33342). After 30 min, cells were washed twice with 200 μL of HEPES-Krebs-Ringer's (HKR) buffer (140 mM NaCl, 2 mM KCl, 1 mM CaCl2, 1 mM MgCl2, and 10 mM HEPES at pH 7.4), after which 100 μL of HKR buffer was overlaid onto the cells and images were acquired on a Zeiss Axiovert 200M epifluorescence microscope outfitted with Ziess AxiocammRM camera and an EXFO-Excite series 120 Hg arc lamp. The translocation ratio (the ratio of median […] intensity in the nuclear and surrounding regions) for individual cells was measured using CELLPROFILER® as described 36. […]
Although endosomal escape is widely considered to be the major bottleneck of cationic protein delivery (Sahay, G.; et al. Nature Biotechnology 2013, 31, 653), few assays quantify the ability of proteins to escape endosomes on a single-cell basis.

BSR.LNL.tdTomato cells [3] = assay: Cre delivery assay with expressed fusion proteins (flow cytometry); type: cell-based, hamster; conditions: 250 nM, compared with unmutated aurein 1.2-+36 GFP-Cre
Method: (§1) FIGS. 15A, 15B are graphs showing the efficacy and toxicity of recombinant expression fusions of aurein 1.2 (“E”) and citropin 1.3 (“U”). […] The percentage of tdTomato positive cells was determined by flow cytometry. Protein fusions were delivered at 125 nM, 250 nM, 500 nM, and 1 μM. […] Protein fusions were delivered at 125 nM, 250 nM, 500 nM, and 1 μM. […] Cells were treated with 250 nM protein for 4 h in serum-free media. Cells were washed and supplanted with full DMEM and incubated for 48 h. Error bars represent the standard deviation of three independent biological replicates.
(§2) Uptake and delivery assays for Cre fusion proteins were performed as previously described (Cronican, J. J.; et al. ACS Chemical Biology 2010, 5, 747). Briefly, proteins were diluted in serum-free DMEM and incubated on the cells in 48-well plates for 4 h at 37° C. Following incubation, the cells were washed three times with PBS+20 U/mL heparin. The cells were incubated a further 48 h in serum-containing media prior to trypsinization and analysis by flow cytometry. All flow cytometry were carried out on a BD Fortessa flow cytometer (Becton-Dickinson) using 530/30 nm and 610/20 nm filter sets. […] Toxicity for alanine scan mutational analysis was determined with LIVE/DEAD fixable far-red dead cell stain (Life Technologies) with 635 nm laser and 670/30 nm filter.

BSR.LNL.tdTomato cells [4] = assay: Toxicity of aurein 1.2 variants fused to +36 GFP-Cre; type: cell-based, hamster; conditions: 250 nM
Description: FIGS. 16A, 16B are graphs showing the activity and cytotoxicity of aurein 1.2 variants fused to +36 GFP-Cre (FIG. 16A). […] (FIG. 16B) Toxicity as determined by CELLTITERGLO (Promega) assay.

[5] = tested on: cochlear hair cells of Rosa-tdTomato f/f (floxP-tdTomato) mice; assay: Supercharged GFP-Cre delivery to hair cells of tdTomato reporter mouse cochlea in vivo; conditions: for hair cells tdT-labeled: near the injection site (base turn of cochlea)
Method: FIGS. 10A and 10B show the in vivo delivery of Cre recombinase to hair cells in the mouse inner ear. FIG. 10A: The scala media (cochlear duct) of P0 floxP-tdTomato mice (n=4) were injected with 0.3 μL of 23 μM (−30)GFP-Cre in 50% RNAiMAX or with RNAiMAX alone (control). After 5 days, tdTomato expression indicative of Cre-mediated recombination was visualized using immunohistology. Red=tdTomato; green=Myo7a; white=Sox2; blue=DAPI. Yellow brackets indicate the outer hair cell (OHC) region. […] Red=tdTomato; green=Esp, white=Sox2; blue=DAPI, Scale bars: 10 μm.
P1 floxP-tdTomato mice (The Jackson Laboratory) were used for (−30)GFP-Cre injection and P2 Atoh1-GFP mice (Dr. J Johnson, Southwestern Medical Center, University of Texas) were used for Cas9:sgRNA injection. Animals were used under protocols approved by the Massachusetts Eye & Ear Infirmary ALCUC committee. Mice were anesthetized by lowering their temperature on ice. Cochleostomies were performed by making an incision behind the ear to expose the cochlea. Glass micropipettes held by a micromanipulator were used to deliver the complex into the scala media, which allows access to inner ear hair cells. For delivery of (−30)GFP-Cre, 3 μL of 45 μM protein was mixed with 3 μL of either RNAiMAX or Lipofectamine 2000 and incubated at room temperature for 30 minutes prior to injection. Four mice were injected per treatment group. […]
5-10 days after injection, the mice were sacrificed and cochlea were harvested by standard protocols. […] To quantify the number of tdTomato positive cells after (−30)GFP-Cre or GFP negative cells after Cas9:sgRNA delivery, the total number of outer hair cells were counted in a region spanning 200 μm around the site of injection in the base turn of the cochlea. The efficiency of (−30)GFP-Cre-induced recombination or Cas9:sgRNA-induced genome modification was calculated as the percentage of outer hair cells that expressed tdTomato or that lost GFP expression. […]

mouse retina = conditions: +36 GFP-Cre alone; cited from earlier work
[6] = tested on: cochlear inner hair cells, outer hair cells and supporting cells; type: in vivo
Method: 0.4 μL of 50 μM+36 GFP-Cre or aurein 1.2-+36 GFP-Cre were injected into the scala media. […] Inner hair cells (IHC), outer hair cells (OHC) and supporting cells in the sensory epithelium (SE) were imaged for the presence of tdTomato, which is only expressed following Cre-mediated recombination. Hair cells were labeled with antibodies against the hair-cell marker Myo7a.
P1-2 Gt(ROSA)26Sor^tm14(CAG-tdTomato)Hze mice were used for aurein 1.2-+36-GFP-Cre and +36-GFP-Cre injection. The Rosa26-tdTomato mice were from the Jackson Laboratory. Animals were used under protocols approved by the Massachusetts Eye & Ear Infirmary IACUC committee. Mice were anesthetized by hypothermia on ice. Cochleostomies were performed by making an incision behind the ear to expose the cochlea. Glass micropipettes held by a micromanipulator were used to deliver the complex into the scala media, which allows access to inner ear hair cells. The total delivery volume for every injection was 0.4 μL per cochlea and the release was controlled by a micromanipulator at the speed of 69 nL/min.
To quantify the number of tdTomato positive cells after aurein 1.2-+36-GFP-Cre and +36-GFP-Cre, we counted the total number of inner and outer hair cells in a region spanning 100 μm in the apex, middle, and base turn of the cochlea.
Both the hair cells (Myo7a+) and supporting cells (Myo7a−) were evaluated for td Tomato signal.

BSR.LNL.tdTomato cells [7] = assay: ATP-dependent cell viability assay (CELLTITER-GLO); conditions: 1 μM, 48 h after treatment
Method: as §1
as §2, with “cytometry.” for “cytometry. All flow cytometry were carried out on a BD Fortessa flow cytometer (Becton-Dickinson) using 530/30 nm and 610/20 nm filter sets.”
Next, the toxicity of each fusion protein was evaluated at a range of concentrations (125 nM to 1 μM) using an ATP-dependent cell viability assay at 48 h after treatment.

[8] = tested on: inner ear cell types (IHC, OHC, SC) of Rosa-tdT mouse; assay: (+36)-GFP-aurein-Cre injection into P3 Rosa-tdT mouse inner ear by cochleostomy; type: in vivo; conditions: 50 μM
Method: FIGS. 11A-11E show the high efficiency of protein delivery mediated by aurein in the inner ear in vivo. […] FIG. 11E: In Opti-MEM injected control mice no tdT labeling was detected in any inner ear cells. Scale bars: 10 μm.
It was next tested whether Aurein, an antimicrobial peptide, in combination with s-GFP, can serve as an effective carrier to deliver functional proteins into mouse inner ear cell types with high efficiency. (+36)-GFP-aurein-Cre was injected with different concentrations into P3 Rosa-tdT mouse inner ear by cochleostomy in vivo. The tissues were harvested 5 days later for immunolabeling to identify tdT^+ inner ear cell types. […] At 22.5 μM, 58% of OHC and 75% of IHC, as well as 8% of SC were tdT^+. At the highest 50 μM, 96% of OHC, 88% of IHC and 19% of SC were tdT^+. Some spiral ganglion neurons were also tdT at 22.5 and 50 μM (FIGS. 11A-11E and FIG. 12).

For “GLFDIIKKVASVIGGL (listed as Litoria citropa) [citropin 1.3]”, the “level of recombination of sortase-conjugated peptide-(+36 GFP)-Cre” value (BSR.LNL.tdTomato cells [1]) was “moderate level of recombination”.
With “Arg8^Dex: canonical cell permeable peptide (SEQ ID NO: 102), dexamethasone-labeled positive control (RRRRRRRR; also: dexamethasone label)” the “nuclear-to-cytoplasm translocation ratio (TR)” value [2] was 1.63.
With “GLFDIIKKIAEAF [S12A, aurein 1.2 variant expressed as fusion with +36 GFP-Cre]” the “recombination efficiency of aurein 1.2 variants fused to +36 GFP-Cre” value (BSR.LNL.tdTomato cells [3]) was “potentially improved overall recombination efficiency” and the “toxicity of aurein 1.2 variants” value (BSR.LNL.tdTomato cells [4]) was “increased toxicity”.
With “(−30)GFP-Cre: negatively supercharged GFP fused to Cre recombinase, SEQ ID NO: 4” the “hair cells tdT-labeled” value [5] was roughly 30% and the “stereocilia of tdTomato-positive outer hair cells” value ([5]; ten days after delivery, 23 μM in 50% RNAiMAX, P0 floxP-tdTomato mice) was “intact espin (Esp)-expressing stereocilia”.
For “+36 GFP-Cre: superpositively charged GFP fused to Cre recombinase, SEQ ID NO: 1”, the “recombination in mouse retina” value (mouse retina) is given as “modest levels of recombination”, the “Cre-mediated recombination in inner hair cells (IHC)” value ([6]; apex, 50 μM) is given as 4.4% and the cell viability (BSR.LNL.tdTomato cells [7]) is given as 85%. For the same substance, the “tdT labeling of cochlear cell types” value [8] was “very few IHC and HC were labeled with tdT”, the “hair cells tdT-labeled” value [5] was roughly 30% and the “recombined cells with chloroquine (positive control)” value (BSR.LNL.tdTomato cells [1]; 250 nM protein incubated with 100 μM chloroquine) was 48%. For the same substance, the “cells expressing tdTomato (recombined cells)” value (BSR.LNL.tdTomato cells [1]; 250 nM protein, 4 h serum-free media, then 48 h) was 4.5%.
For GLFDIIKKIAESF [aurein 1.2], the “potency of Cre delivery into cochlear hair cells when fused with aurein 1.2 vs absence of the peptide” value ([6]; live mice) was greater than 20 fold and the “level of recombination of sortase-conjugated peptide-(+36 GFP)-Cre” value (BSR.LNL.tdTomato cells [1]) was “highest level of recombination”.
For “GLFDIIKRIAESF [K8R, aurein 1.2 variant expressed as fusion with +36 GFP-Cre]”, the “recombination efficiency of aurein 1.2 variants fused to +36 GFP-Cre” value (BSR.LNL.tdTomato cells [3]) was “potentially improved overall recombination efficiency” and the “toxicity of aurein 1.2 variants” value (BSR.LNL.tdTomato cells [4]) was “increased toxicity”.
